Numbered stars: 1 amine (or outer) side, 2 acyl side, 3 side chain; on linkers, the order of the positions; unused ones are H or OH. Square brackets hold non-standard residues; d marks the D form. Peptide text beside a SMILES is read from it. * marks the point of attachment. 5FAM = O=C1OC2(c3ccc(O)cc3Oc3cc(O)ccc32)c2ccc(C(=O)*)cc21; NHCH2C6H4(4-CH2CONH2) = NC(=O)Cc1ccc(CN*)cc1; X1 = O=C(Cc1ccc(CN[*:1])cc1)[*:2]
target: TNFα (Homo sapiens, UniProt P01375); assay: MST binding affinity of resynthesized NNP hits to TNFα; set-up: purchased R&D Systems, Inc. 210-TA/CF; conditions: read-out: KD (nM) [95% conf. int], NNP2 library hit, target TNFα, one-site binding model
Protocol: Hit binding affinity to various targets were determined using Microscale Thermophoresis (MST). MST experiments were performed on a Monolith NT.115pico (NanoTemper Technologies GmbH, Munich, Germany). Measurements were performed at room temperature, in triplicate with incubation periods of 15, 30 and 45 minutes. […] Targets were labeled using Nanotemper Monolith 2nd Generation Protein Labeling Kits. RED-MALEIMIDE (Maleimide-647-dye) labeling kit was used for K-Ras and RED-NHS (NHS-647-dye) labeling kit was used for IL-6, IL-6R, TNFα and ASGPR. The buffer for the ASGPR contained 20 mM HEPES pH 7.4, 150 mM NaCl, 10 mM MgCl2, 2 mM CaCl2, 0.05% Pluronic F-127, and 1 mM DTT; for IL-6 contained 20 mM HEPES pH 7.4, 150 mM KCl, 10 mM MgCl2, and 0.1% Pluronic F-127; for the soluble IL-6 receptor 20 mM HEPES pH 7.4, 150 mM NaCl, 10 mM MgCl2, and 0.05% Tween-20; for K-Ras 20 mM HEPES pH 7.4, 150 mM NaCl, 10 mM MgCl2, 0.05% Tween-20 and 1 mM DTT; for TNFα 10 mM HEPES pH 7.4, 150 mM NaCl, 10 mM MgCl2, 0.05% Polysorbate-20. Triplicate data was analyzed using MO.AffinityAnalysis software (NanoTemper Technologies GmbH).

TNFα, sequence (P01375 77-233 limits assumed): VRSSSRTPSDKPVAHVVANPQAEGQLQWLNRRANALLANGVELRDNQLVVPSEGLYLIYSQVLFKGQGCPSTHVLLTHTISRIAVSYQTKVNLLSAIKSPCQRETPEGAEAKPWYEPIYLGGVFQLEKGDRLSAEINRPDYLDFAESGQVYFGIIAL

In order of rising Kd:
1. CC(C)C[C@H](NC(=O)[C@@H](CCCNC(=N)N)NC(=O)[C@@H](CC(C)C)NC(=O)Cc1ccc(CNC(=O)[C@H](CC(C)C)NC(=O)[C@H](NC(=O)[C@@H](CCCCN)NC(=O)c2ccc3c(c2)C(=O)OC32c3ccc(O)cc3Oc3cc(O)ccc32)C(C)C)cc1)C(=O)NCc1ccc(CC(=O)N[C@H](Cc2ccccc2)C(=O)N[C@H](CCC(=O)O)C(=O)N[C@H](C(=O)NCc2ccc(CC(=O)N[C@H](Cc3ccccc3)C(=O)N[C@H](CCCNC(=N)N)C(=O)N[C@@H](C)C(=O)NCc3ccc(CC(=O)N[C@H](Cc4ccc(O)cc4)C(=O)N[C@H](CCCCN)C(=O)N[C@@H](C)C(=O)NCc4ccc(CC(=O)N[C@H](CCC(=O)O)C(=O)N[C@H](CO)C(=O)N[C@H](C(=O)NCc5ccc(CC(=O)N6CCC[C@@H]6C(=O)N[C@@H](C(=O)NCC(=O)NCc6ccc(CC(=O)N7CCC[C@@H]7C(=O)N[C@H](CCCNC(=N)N)C(=O)N[C@@H](C)C(=O)NCc7ccc(CC(=O)N[C@H](Cc8ccccc8)C(=O)N[C@H](CCCCN)C(=O)NCC(=O)NCc8ccc(CC(N)=O)cc8)cc7)cc6)C(C)C)cc5)C(C)C)cc4)cc3)cc2)C(C)C)cc1 [TNF-39-5] (5FAM-[dK][dV]L[X1][dL][dR]L[X1][dF][dE]V[X1][dF][dR]A[X1][dY][dK]A[X1][dE][dS]V[X1][dP][dV]G[X1][dP][dR]A[X1][dF][dK]G-{NHCH2C6H4(4-CH2CONH2)})  23 nM
2. CC(C)C[C@H](NC(=O)[C@@H](CCC(=O)O)NC(=O)[C@H]1CCCN1C(=O)Cc1ccc(CNC(=O)[C@H](CC(C)C)NC(=O)[C@@H](CCCCN)NC(=O)[C@@H](Cc2ccccc2)NC(=O)Cc2ccc(CNC(=O)[C@@H](NC(=O)[C@@H](CCC(=O)O)NC(=O)[C@@H](Cc3ccccc3)NC(=O)Cc3ccc(CNC(=O)[C@H](CC(C)C)NC(=O)[C@@H](CCCNC(=N)N)NC(=O)[C@@H](CC(C)C)NC(=O)Cc4ccc(CNC(=O)[C@H](Cc5ccccc5)NC(=O)[C@@H](CC(C)C)NC(=O)[C@H](NC(=O)c5ccc6c(c5)C(=O)OC65c6ccc(O)cc6Oc6cc(O)ccc65)[C@H](C)O)cc4)cc3)C(C)C)cc2)cc1)C(=O)NCc1ccc(CC(=O)N2CCC[C@@H]2C(=O)N[C@H](CCC(=O)O)C(=O)N[C@@H](Cc2ccccc2)C(=O)NCc2ccc(CC(=O)N[C@H](Cc3c[nH]cn3)C(=O)N[C@H](CCC(=O)O)C(=O)N[C@@H](CC(C)C)C(=O)NCc3ccc(CC(=O)N4CCC[C@@H]4C(=O)N[C@H](CCCNC(=N)N)C(=O)N[C@@H](C)C(=O)NCc4ccc(CC(=O)N[C@H](Cc5c[nH]cn5)C(=O)N[C@H](Cc5ccc(O)cc5)C(=O)N[C@H](C(=O)NCc5ccc(CC(N)=O)cc5)C(C)C)cc4)cc3)cc2)cc1 [TNF-39-4] (5FAM-[dT][dL]F[X1][dL][dR]L[X1][dF][dE]V[X1][dF][dK]L[X1][dP][dE]L[X1][dP][dE]F[X1][dH][dE]L[X1][dP][dR]A[X1][dH][dY]V-{NHCH2C6H4(4-CH2CONH2)})  28 nM
3. CC(C)C[C@H](NC(=O)[C@@H](CCCCN)NC(=O)[C@@H](Cc1ccccc1)NC(=O)Cc1ccc(CNC(=O)[C@H](CC(C)C)NC(=O)[C@H](NC(=O)[C@@H](CCCNC(=N)N)NC(=O)Cc2ccc(CNC(=O)[C@H](CC(C)C)NC(=O)[C@@H](CCCNC(=N)N)NC(=O)[C@@H](CC(C)C)NC(=O)Cc3ccc(CNC(=O)[C@H](CC(C)C)NC(=O)[C@H](NC(=O)[C@@H](CCCCN)NC(=O)c4ccc5c(c4)C(=O)OC54c5ccc(O)cc5Oc5cc(O)ccc54)C(C)C)cc3)cc2)C(C)C)cc1)C(=O)NCc1ccc(CC(=O)N[C@H](C)C(=O)N[C@H](CCCCN)C(=O)N[C@@H](Cc2ccccc2)C(=O)NCc2ccc(CC(=O)N[C@H](Cc3ccccc3)C(=O)N[C@@H](C(=O)N[C@@H](C)C(=O)NCc3ccc(CC(=O)N4CCC[C@@H]4C(=O)NCC(=O)N[C@H](C(=O)NCc4ccc(CC(=O)N[C@H](CCCCN)C(=O)N[C@H](Cc5ccccc5)C(=O)N[C@@H](Cc5ccccc5)C(=O)NCc5ccc(CC(=O)N[C@H](C)C(=O)N[C@@H](C(=O)N[C@@H](CC(C)C)C(=O)NCc6ccc(CC(N)=O)cc6)C(C)C)cc5)cc4)C(C)C)cc3)[C@H](C)O)cc2)cc1 [TNF-39-7] (5FAM-[dK][dV]L[X1][dL][dR]L[X1][dR][dV]L[X1][dF][dK]L[X1][dA][dK]F[X1][dF][dT]A[X1][dP]GV[X1][dK][dF]F[X1][dA][dV]L-{NHCH2C6H4(4-CH2CONH2)})  53 nM
4. CC(C)C[C@H](NC(=O)[C@@H](CCCNC(=N)N)NC(=O)[C@@H](CC(C)C)NC(=O)Cc1ccc(CNC(=O)[C@H](CC(C)C)NC(=O)[C@@H](CC(C)C)NC(=O)[C@@H](Cc2ccc(O)cc2)NC(=O)c2ccc3c(c2)C(=O)OC32c3ccc(O)cc3Oc3cc(O)ccc32)cc1)C(=O)NCc1ccc(CC(=O)N[C@H](Cc2ccccc2)C(=O)N[C@H](CCC(=O)O)C(=O)N[C@H](C(=O)NCc2ccc(CC(=O)N3CCC[C@@H]3C(=O)N[C@H](CCCNC(=N)N)C(=O)N[C@H](C(=O)NCc3ccc(CC(=O)N[C@H](Cc4c[nH]c5ccccc45)C(=O)N[C@H](CCCNC(=N)N)C(=O)N[C@H](C(=O)NCc4ccc(CC(=O)N[C@H](CCCNC(=N)N)C(=O)N[C@H](Cc5ccc(O)cc5)C(=O)N[C@@H](CC(C)C)C(=O)NCc5ccc(CC(=O)N[C@H](CCC(=O)O)C(=O)N[C@@H](C(=O)N[C@H](C(=O)NCc6ccc(CC(=O)N[C@@H](C(=O)N[C@H](Cc7c[nH]cn7)C(=O)N[C@@H](CC(C)C)C(=O)NCc7ccc(CC(=O)N[C@H](Cc8ccc(O)cc8)C(=O)N[C@H](CCCNC(=N)N)C(=O)N[C@@H](Cc8ccccc8)C(=O)NCc8ccc(CC(N)=O)cc8)cc7)[C@H](C)O)cc6)C(C)C)C(C)C)cc5)cc4)C(C)C)cc3)C(C)C)cc2)C(C)C)cc1 [TNF-39-6] (5FAM-[dY][dL]L[X1][dL][dR]L[X1][dF][dE]V[X1][dP][dR]V[X1][dW][dR]V[X1][dR][dY]L[X1][dE][dV]V[X1][dT][dH]L[X1][dY][dR]F-{NHCH2C6H4(4-CH2CONH2)})  93 nM
5. CC(C)C[C@H](NC(=O)[C@@H](CCCCN)NC(=O)[C@@H](Cc1c[nH]c2ccccc12)NC(=O)Cc1ccc(CNC(=O)[C@@H](NC(=O)CNC(=O)[C@H]2CCCN2C(=O)Cc2ccc(CNC(=O)[C@H](CC(C)C)NC(=O)[C@@H](Cc3ccc(O)cc3)NC(=O)[C@@H](CCCNC(=N)N)NC(=O)Cc3ccc(CNC(=O)[C@H](Cc4ccccc4)NC(=O)[C@@H](CCCCN)NC(=O)[C@@H](C)NC(=O)Cc4ccc(CNC(=O)[C@H](C)NC(=O)[C@@H](CCCNC(=N)N)NC(=O)[C@@H](Cc5ccccc5)NC(=O)Cc5ccc(CNC(=O)[C@@H](NC(=O)[C@@H](CCC(=O)O)NC(=O)[C@@H](Cc6ccccc6)NC(=O)Cc6ccc(CNC(=O)[C@H](CC(C)C)NC(=O)[C@@H](CCCNC(=N)N)NC(=O)[C@@H](CC(C)C)NC(=O)Cc7ccc(CNC(=O)[C@H](Cc8ccccc8)NC(=O)[C@@H](CC(C)C)NC(=O)[C@H](NC(=O)c8ccc9c(c8)C(=O)OC98c9ccc(O)cc9Oc9cc(O)ccc98)[C@H](C)O)cc7)cc6)C(C)C)cc5)cc4)cc3)cc2)C(C)C)cc1)C(=O)NCc1ccc(CC(=O)N[C@H](Cc2ccc(O)cc2)C(=O)N[C@H](CCCNC(=N)N)C(=O)N[C@@H](Cc2ccccc2)C(=O)NCc2ccc(CC(N)=O)cc2)cc1 [TNF-39-3] (5FAM-[dT][dL]F[X1][dL][dR]L[X1][dF][dE]V[X1][dF][dR]A[X1][dA][dK]F[X1][dR][dY]L[X1][dP]GV[X1][dW][dK]L[X1][dY][dR]F-{NHCH2C6H4(4-CH2CONH2)})  130 nM
6. CC(C)C[C@H](NC(=O)[C@@H](CCCNC(=N)N)NC(=O)CNC(=O)Cc1ccc(CNC(=O)[C@H](CC(C)C)NC(=O)[C@@H](CC(C)C)NC(=O)[C@@H](Cc2ccc(O)cc2)NC(=O)c2ccc3c(c2)C(=O)OC32c3ccc(O)cc3Oc3cc(O)ccc32)cc1)C(=O)NCc1ccc(CC(=O)N[C@H](Cc2ccccc2)C(=O)N[C@H](CCC(=O)O)C(=O)N[C@H](C(=O)NCc2ccc(CC(=O)N[C@H](Cc3c[nH]c4ccccc34)C(=O)N[C@H](CCCNC(=N)N)C(=O)N[C@@H](CC(C)C)C(=O)NCc3ccc(CC(=O)N[C@H](Cc4c[nH]c5ccccc45)C(=O)N[C@H](CCCNC(=N)N)C(=O)N[C@H](C(=O)NCc4ccc(CC(=O)N[C@H](CCCNC(=N)N)C(=O)N[C@H](Cc5ccc(O)cc5)C(=O)N[C@@H](CC(C)C)C(=O)NCc5ccc(CC(=O)N6CCC[C@@H]6C(=O)NCC(=O)N[C@H](C(=O)NCc6ccc(CC(=O)N[C@H](Cc7c[nH]cn7)C(=O)N[C@H](CO)C(=O)N[C@@H](CC(C)C)C(=O)NCc7ccc(CC(=O)N[C@H](Cc8ccccc8)C(=O)N[C@H](CCCCN)C(=O)NCC(=O)NCc8ccc(CC(N)=O)cc8)cc7)cc6)C(C)C)cc5)cc4)C(C)C)cc3)cc2)C(C)C)cc1 [TNF-39-2] (5FAM-[dY][dL]L[X1]G[dR]L[X1][dF][dE]V[X1][dW][dR]L[X1][dW][dR]V[X1][dR][dY]L[X1][dP]GV[X1][dH][dS]L[X1][dF][dK]G-{NHCH2C6H4(4-CH2CONH2)})  200 nM

Source: patent US20230393140A1, “BINDING ASSAYS INVOLVING A PLURALITY OF SYNTHETIC COMPOUNDS, TARGETS, AND COUNTER TARGETS” (SRI International, priority 2020, published 2023)
